In patent US20150284335A1, “Benzoimidazoles as prolyl hydroxylase inhibitors” (Janssen Pharmaceutica NV, priority 2008, published 2015):
Marks after values point to notes of the source that are not given here.

Tests used:
[1] = test system: Hep-3B cells; test: Cellular assay: EPO secretion in Hep-3B cells; assay type: cell-based, human; settings: 24 hours, percent of EPO secretion relative to assay control compound
[2] = molecular target: T1, PHD2181-417 (Homo sapiens, UniProt Q9GZT9); test: PHD enzyme activity assay ([14C]-succinic acid production); assay type: biochemical; settings: inhibition of PHD2181-417 activity; HIF-1α peptide 10 μM, [5-14C]-2-oxoglutaric acid, 10 minutes; read-out: Enzyme pIC50 (converted);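 further: enzyme expressed in E. coli BL21, assayed in Tris-HCl pH 7.5 with catalase, DTT and ascorbate, [14C]-succinic acid beta-counted after DNP precipitation of residual 2-oxoglutarate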
T1 construct: histidine tag (N, cleaved yes); Smt3 (SUMO) tag (N, cleaved yes); made in house; host or cells: E. coli BL21 (pBAD vector)

[3] = final compound concentration 100 μM

T1 sequence (Q9GZT9 181-417): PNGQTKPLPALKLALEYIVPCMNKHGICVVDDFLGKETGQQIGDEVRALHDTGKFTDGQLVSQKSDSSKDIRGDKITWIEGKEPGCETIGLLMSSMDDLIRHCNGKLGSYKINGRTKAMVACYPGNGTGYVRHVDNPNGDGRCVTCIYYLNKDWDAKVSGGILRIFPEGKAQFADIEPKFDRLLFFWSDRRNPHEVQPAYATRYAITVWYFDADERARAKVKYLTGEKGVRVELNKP

| IC50 [2] [µM] | SMILES | Cellular % EPO Stimulation [1, 3] [%] | Cellular % EPO Stimulation ([1]; final compound concentration of 10 μM) |
| --- | --- | --- | --- |
| 7.94 | O=C(O)CNC(=O)c1nc2cc(-c3ccc(OCc4cccc(Cl)c4)c(Cl)c3)ccc2[nH]1 [Example 21, ({5-[3-Chloro-4-(3-chloro-benzyloxy)phenyl]-1H-benzoimidazole-2-carbonyl}-amino)-acetic acid] | −1.43 | – |
| 12.6 | Cc1cc(-c2ccc3[nH]c(C(=O)NCC(=O)O)nc3c2)cc(C)c1OCc1cccc(Cl)c1 [Example 22, ({5-[4-(3-Chloro-benzyloxy)-3,5-dimethyl-phenyl]-1H-benzoimidazole-2-carbonyl}-amino)-acetic acid] | −1.06 | – |
| 39.8 | COc1cccc(-c2ccc3[nH]c(C(=O)NCC(=O)O)nc3c2)c1 [Example 23, {[5-(3-Methoxy-phenyl)-1H-benzoimidazole-2-carbonyl]-amino}-acetic acid] | 1.40 | – |
| 15.8 | O=C(O)CNC(=O)c1nc2cc(-c3cc(C(=O)NCc4ccccc4)ccc3F)ccc2[nH]1 [Example 24, {[5-(5-Benzylcarbamoyl-2-fluoro-phenyl)-1H-benzoimidazole-2-carbonyl]-amino}-acetic acid] | 13.56 | – |
| 12.6 | O=C(O)CNC(=O)c1nc2cc(-c3ccc4ccccc4c3)ccc2[nH]1 [Example 25, [(5-Naphthalen-2-yl-1H-benzoimidazole-2-carbonyl)-amino]-acetic acid] | 2.10 | – |
| 15.8 | CCCOc1ccc(-c2ccc3[nH]c(C(=O)NCC(=O)O)nc3c2)cc1 [Example 26, {[5-(4-Propoxy-phenyl)-1H-benzoimidazole-2-carbonyl]-amino}-acetic acid] | 2.50 | – |
| 39.8 | Cc1cc(-c2ccc3[nH]c(C(=O)NCC(=O)O)nc3c2)ccc1Cl [Example 27, {[5-(4-Chloro-3-methyl-phenyl)-1H-benzoimidazole-2-carbonyl]-amino}-acetic acid] | −0.70 | – |
| 25.1 | O=C(O)CNC(=O)c1nc2cc(-c3cc(Cl)ccc3F)ccc2[nH]1 [Example 28, {[5-(5-Chloro-2-fluoro-phenyl)-1H-benzoimidazole-2-carbonyl]-amino}-acetic acid] | 1.40 | – |
| 63.1 | O=C(O)CNC(=O)c1nc2cc(NC(=O)c3ccccc3)ccc2[nH]1 [Example 29, [(5-Benzoylamino-1H-benzoimidazole-2-carbonyl)-amino]-acetic acid] | −3.30 | – |
| 31.6 | O=C(O)CNC(=O)c1nc2ccc(NS(=O)(=O)c3ccccc3)cc2[nH]1 [Example 30, [(6-Benzenesulfonylamino-1H-benzoimidazole-2-carbonyl)-amino]-acetic acid] | 1.10 | – |
| 5.01 | O=C(O)CNC(=O)c1nc2ccc(NCc3ccccc3)cc2[nH]1 [Example 31, [(6-Benzylamino-1H-benzoimidazole-2-carbonyl)-amino]-acetic acid] | 1.40 | – |
| 0.1 | O=C(O)c1cnn(-c2nc3cc(Cl)c(Cl)cc3[nH]2)c1 [Example 33, 1-(5,6-Dichloro-1H-benzoimidazol-2-yl)-1H-pyrazole-4-carboxylic acid] | 168.46 | – |
| 0.251 | O=C(O)c1cnn(-c2nc3cc(C(F)(F)F)ccc3[nH]2)c1 [Example 34, 1-(5-Trifluoromethyl-1H-benzoimidazol-2-yl)-1H-pyrazole-4-carboxylic acid] | 127.80 | – |
| 0.0398 | O=C(O)c1cnn(-c2nc3cc(-c4cccc(OCc5ccc(Cl)cc5)c4)ccc3[nH]2)c1 [Example 45, 1-{5-[3-(4-Chloro-benzyloxy)-phenyl]-1H-benzoimidazol-2-yl}-1H-pyrazole-4-carboxylic acid] | 2.10 | – |
| > 100 | C[C@@H](NC(=O)c1nc2cc(Cl)c(Cl)cc2[nH]1)C(=O)O [Example 53, (R)-2-[(5,6-Dichloro-1H-benzoimidazole-2-carbonyl)-amino]-propionic acid] | – | 11.3* % |
| > 100 | C[C@@H](NC(=O)c1nc2ccc(I)cc2[nH]1)C(=O)O [Example 54, (R)-2-[(5-Iodo-1H-benzoimidazole-2-carbonyl)-amino]-propionic acid] | 7.50 | – |
